Assays:
[1] = Pharmacokinetic evaluation in C57BL/6 mice; type: in vivo; settings: male, mouse, plasma
Protocol: The pharmacokinetic parameters of the compounds in C57BL/6 mice were investigated.
C57BL/6 mice (male, 18-30 g, 7-9 weeks old, Shanghai Lingchang Biotechnology Co., Ltd.)
Formulations containing an aqueous solution of 1% DMSO/10% hydroxypropyl-β-cyclodextrin as the vehicle were administered by intravenous injection (1 mpk), formulations containing an aqueous solution of 1% DMSO/1% hydroxypropyl methylcellulose/0.2% Tween 80 as the vehicle were administered by gavage (5 mpk). Before the animal experiment, all animals were fasted, and fed 4 hours after administration; all animals were free to drink water. The time points of blood collection: intravenous injection administration group: 0.083, 0.25, 0.5, 1, 2, 4, 6, 8 and 24 hours; gavage administration group: 0.25, 0.5, 1, 2, 4, 6, 8 and 24 hours.
(§1) Whole blood samples (0.03 mL) were collected through the saphenous vein (or other suitable blood collection sites) at the prescribed time points, and all blood samples were added to labeled plastic centrifuge tubes containing K2-EDTA anticoagulant. After the blood samples were collected, the plasma was isolated by centrifugation, immediately placed in dry ice and stored at low temperature. All samples were analyzed by LC-MS/MS with a minimum detection limit of 2 nM. The non-compartmental model of WinNonlin™ Version 6.3 (Pharsight, Mountain View, Calif.) pharmacokinetic software was used to process the mean plasma concentration, and the linear-log trapezoid method was used to calculate the pharmacokinetic parameters.

[2] = Pharmacokinetic and tissue distribution in Lewis rats; type: in vivo; settings: male, rat, lung / plasma, oral, 5 mg/kg, gavage 5 mpk, read-out: Ratio in lung blood
Protocol: The pharmacokinetic and tissue distribution of the compounds in Lewis rats was tested.
Lewis rats (male, 202-239 g, 7-9 weeks old, Beijing Viton Lihua)
Formulations containing an aqueous solution of 1% hydroxypropyl methylcellulose/0.2% Tween 80 as the vehicle were administered by gavage (5 mpk). Before the animal experiment, all animals were fasted overnight, and fed 4 hours after administration; all animals were free to drink water. The time points of blood collection: danirixin administration group: 0.25, 1, 8 hours; gavage administration group: 0.5, 1, 4 hours.
as §1, with “(0.2” for “(0.03”, “separated” for “isolated”, “log-linear” for “linear-log”

PPE-induced COPD model = experiment: Therapeutic effect on PPE-induced COPD model, flow cytometry of inflammatory cells; type: in vivo, C57BL/6 mice; settings: PPE-induced mouse COPD model, daily gavage 4 weeks, high dose (120 mpk)
Protocol: The therapeutic effect of the compounds on PPE-induced COPD model in C57BL/6 mice was tested. Animals: C57BL/6 mice (female, 17.5-18.5 g, 6-8 weeks old) Drugs: Porcine pancreas elastase (PPE) (sigma, 0.068 U/μL); compound 1 in FIG. 1, FIG. 2 and FIG. 3 is danirixin; compound 2 is WX006A. Grouping: (1) COPD model group (porcine pancreatic elastase model group) • (2) PPE+ danirixin (40 mpk) • (3) PPE+ danirixin (120 mpk) • (4) PPE+WX006A (4 mpk) • (5) PPE+WX006A (12 mpk) 1. Modeling method: PPE was administered through by drip transfusion at the back of the tongue. 2. Administration method: an aqueous solution of 1% DMSO/1% hydroxypropyl methylcellulose/0.2% Tween 80 was used as the vehicle; the animals were daily administered with a volume of 200 μL/animal by gavage for 4 weeks. 3. End point of the experiment: On the 29th day, the mice were euthanized, samples were collected, and flow cytometry was performed. The blood, alveolar lavage fluid and lung tissue of the mice were collected after 4 weeks of administration to determine the percentage of inflammatory cells. 1) Alveolar lavage cells: the mice were euthanized. […] 3) The cells were counted and the cell suspensions were transferred into flow cytometry tubes. […] 5) After washing the cells, the percentage of neutrophils and monocytes in CD45^+ cells was determined using a flow cytometer.

clearance ([1]; intravenous 1 mpk / gavage 5 mpk study): 2.55 L/h/kg
half-life ([1]; intravenous 1 mpk / gavage 5 mpk study, read-out: Half-life T1/2 (converted)): 7.43 h
AUC ([1]; intravenous 1 mpk / gavage 5 mpk study, route not stated, unit printed shifted under first column, read-out: Area under the drug concentration time curve (AUC)): 1580 nM·h
bioavailability ([1]; po, 5 mg/kg, gavage 5 mpk vs intravenous 1 mpk, read-out: Bioavailability (F)): 34.3%
Kp [2]: 1.57
Structure (SMILES): Cc1c(F)cccc1NC(=O)Nc1ccc(Cl)c(S(=O)(=O)[C@H]2CCCNC2)c1O [Danirixin, danirixin, reference compound]
proportion of monocytes in the alveolar lavage fluid (PPE-induced COPD model): significant effect of reducing
proportion of neutrophils in the alveolar lavage fluid (PPE-induced COPD model): significant effect of reducing

Reference: patent US11136315B2, “CXCR2 antagonist” (MEDSHINE DISCOVERY INC., priority 2018, dated 2021)
